Source: ChEMBL document CHEMBL4371063, “Identification of 2-(2'-fluoro-[1,1'-biphenyl]-2-yl)acetamide as a Sodium Valproate-like broad spectrum anti-epileptic drug candidate” (Bioorg Med Chem Lett, 2019)
Activity calls are given as the source filed them.

Key:
Mus musculus [1] = test: Anticonvulsant activity in maximal electroshock induced seizure mouse model assessed as reduction in convulsions at 100 mg/kg, po; type: functional, organism-based
Mus musculus [2] = test: Anticonvulsant activity in maximal electroshock induced seizure mouse model assessed as reduction in convulsions at 50 mg/kg, po; type: functional, organism-based
Mus musculus [3] = test: Anticonvulsant activity in maximal electroshock induced seizure mouse model assessed as reduction in convulsions at 25 mg/kg, po; type: functional, organism-based
Mus musculus [4] = test: Anticonvulsant activity in subcutaneous pentylenetetrazole-induced seizure mouse model assessed as reduction in convulsions at 100 mg/kg, po; type: functional, organism-based
Mus musculus [5] = test: Anticonvulsant activity in subcutaneous pentylenetetrazole-induced seizure mouse model assessed as reduction in convulsions at 50 mg/kg, po; type: functional, organism-based
[6] = Stability in rat hepatic microsomes assessed as parent compound remaining after 30 mins in presence of NADPH; type: ADME, Microsome; details: liver microsomes, read-out: Stability
[7] = Stability in human hepatic microsomes assessed as parent compound remaining after 30 mins in presence of NADPH; type: ADME, Microsome; details: liver microsomes, read-out: Stability
Rattus norvegicus [8] = test: Anticonvulsant activity in amygdala kindling rat model assessed as change in after discharge threshold at 50 mg/kg, po relative to control; type: functional
Rattus norvegicus [9] = test: Anticonvulsant activity in amygdala kindling rat model assessed as change in after discharge threshold at 100 mg/kg, po relative to control; type: functional
Rattus norvegicus [10] = test: Anticonvulsant activity in amygdala kindling rat model assessed as change in after discharge duration at 50 mg/kg, po (reference value: -5.5%); type: functional
Rattus norvegicus [11] = test: Anticonvulsant activity in amygdala kindling rat model assessed as change in after discharge duration at 100 mg/kg, po (reference value: -5.5%); type: functional
Mus musculus [12] = test: Anticonvulsant activity in po dosed maximal electroshock induced seizure mouse model assessed as reduction in convulsions; type: functional
Mus musculus [13] = test: Anticonvulsant activity in po dosed subcutaneous pentylenetetrazole-induced seizure mouse model assessed as reduction in convulsions; type: functional
Mus musculus [14] = test: Anticonvulsant activity in po dosed 6-Hz induced seizure mouse model; type: functional
[15] = Neurotoxicity in po dosed mouse by rotarod test; type: toxicity, organism-based; details: in vivo
[16] = Therapeutic index, ratio of TD50 for neurotoxicity in po dosed mouse to ED50 for po dosed maximal electroshock induced seizure mouse model; type: toxicity, organism-based; details: in vivo, read-out: Ratio TD50/ED50
[17] = Therapeutic index, ratio of TD50 for neurotoxicity in po dosed mouse to ED50 for po dosed 6-Hz induced seizure mouse model; type: toxicity, organism-based; details: in vivo, read-out: Ratio TD50/ED50
[18] = molecular target: T1, GABA-A receptor; anion channel (Rattus norvegicus) (UniProt O09028+P15431+P18506+P18508+P19969+P20236+P23574+P23576+P28471+P28473+P30191+P62813+P63079+P63138+Q91ZM7+Q9ES14); test: Displacement of [3H]flunitrazepam from GABAA receptor in Sprague-Dawley rat cerebral cortex at 30 uM after 60 mins by scintillation counting method
[19] = molecular target: T1, GABA-A receptor; anion channel (Rattus norvegicus); test: Displacement of […] from GABAA receptor in Sprague-Dawley rat cerebral cortex at 30 uM by scintillation counting method
[20] = molecular target: T2, GABA-A receptor; anion channel (Homo sapiens) (UniProt P14867+P47870+P18507+P28472+P48169+Q99928+Q9UN88+P34903+O00591+O14764+Q8N1C3+P18505+P78334+P47869+P31644+Q16445); test: Displacement of [3H]muscimol from GABAA receptor (unknown origin) at 30 uM; type: protein-complex assay
[21] = molecular target: T2, GABA-A receptor; anion channel (Homo sapiens); test: Displacement of [3H]Ro15-1788 from GABAA receptor (unknown origin) at 30 uM; type: protein-complex assay
[22] = molecular target: T2, GABA-A receptor; anion channel (Homo sapiens); test: Displacement of [3H]TBOB from GABAA receptor (unknown origin) at 30 uM; type: protein-complex assay
Mus musculus [23] = test: Anticonvulsant activity in subcutaneous pentylenetetrazole-induced seizure mouse model assessed as reduction in convulsions at 25 mg/kg, po; type: functional, organism-based
Rattus norvegicus [24] = test: Anticonvulsant activity in amygdala kindling rat model assessed as change in after discharge threshold at 300 mg/kg, po relative to control; type: functional
Rattus norvegicus [25] = test: Anticonvulsant activity in amygdala kindling rat model assessed as change in after discharge threshold at 600 mg/kg, po relative to control; type: functional
Rattus norvegicus [26] = test: Anticonvulsant activity in amygdala kindling rat model assessed as change in after discharge duration at 300 mg/kg, po (reference value: -5.5%); type: functional
Rattus norvegicus [27] = test: Anticonvulsant activity in amygdala kindling rat model assessed as change in after discharge duration at 600 mg/kg, po (reference value: -5.5%); type: functional

With `CNS(=O)(=O)c1ccccc1-c1ccccc1F` the Activity (Mus musculus [1]) was “Active”, the Activity (Mus musculus [2]) was “Active” and the Activity (Mus musculus [3]) was “Active”. For the same compound, the Activity (Mus musculus [4]) was “Active” and the Activity (Mus musculus [5]) was “Active”.
With `NC(=O)Cc1ccccc1-c1ccccc1F` the Activity (Mus musculus [1]) was “Active”, the Activity (Mus musculus [2]) was “Active” and the remaining at 0.5 h [6] was greater than 95%. The remaining at 0.5 h [7] was greater than 95%, the Activity (Rattus norvegicus [8]) was 75.9% and the Activity (Rattus norvegicus [9]) was 80.1%. The Activity (Rattus norvegicus [10]) was -22.9%, the Activity (Rattus norvegicus [11]) was -22.9% and the ED50 (Mus musculus [12]) was 27 mg/kg. The ED50 (Mus musculus [13]) was 27 mg/kg, the ED50 (Mus musculus [14]) was 56 mg/kg and the TD50 [15] was 129 mg/kg. The selectivity ratio [16] was 4.8, the selectivity ratio [17] was 2.3 and the inhibition [18] was “inactive”. The inhibition [19] was “inactive”, the inhibition [20] was “inactive” and the inhibition [21] was “inactive”. For the same compound, the inhibition [22] was “inactive”.
In the case of `NC(=O)Cc1ccccc1-c1cc(F)ccc1F`, the Activity (Mus musculus [1]) is reported as “Active”, the Activity (Mus musculus [2]) is reported as “Active” and the Activity (Mus musculus [3]) is reported as “inactive”. The Activity (Mus musculus [4]) was “Active” and the Activity (Mus musculus [23]) was “inactive”.
For `NC(=O)Cc1cccnc1-c1ccccc1F`, the Activity (Mus musculus [1]) was “inactive”.
For `NC(=O)Cc1ccc(F)cc1-c1ccccc1F`, the Activity (Mus musculus [1]) was “Active”, the Activity (Mus musculus [2]) was “Active” and the Activity (Mus musculus [3]) was “inactive”.
In the case of `NC(=O)Cc1ccccc1-c1c(F)cccc1F`, the Activity (Mus musculus [1]) is reported as “Active”, the Activity (Mus musculus [2]) is reported as “Active” and the Activity (Mus musculus [3]) is reported as “Active”. For the same compound, the Activity (Mus musculus [4]) was “Active” and the Activity (Mus musculus [23]) was “inactive”.
With `NC(=O)Cc1ccccc1-c1ccncc1F` the Activity (Mus musculus [1]) was “inactive”.
With `O=C1NC(=O)C(c2ccccc2-c2ccccc2F)N1` (centres undefined) the Activity (Mus musculus [1]) was “Active” and the Activity (Mus musculus [4]) was “inactive”.
`CCCC(CCC)C(=O)[O-].[Na+]` [VALPROATE SODIUM] showed an Activity (Rattus norvegicus [24]) of -5.4%, an Activity (Rattus norvegicus [25]) of 81.3% and an Activity (Rattus norvegicus [26]) of 11.1%. The Activity (Rattus norvegicus [27]) was -22.5%, the ED50 (Mus musculus [12]) was 309 mg/kg and the ED50 (Mus musculus [13]) was 336 mg/kg. It also gave an ED50 (Mus musculus [14]) of 343 mg/kg and a TD50 [15] of 396 mg/kg.
For `NC(=O)Cc1ccccc1-c1ccccc1Cl`, the Activity (Mus musculus [1]) was “Active”, the Activity (Mus musculus [2]) was “Active” and the Activity (Mus musculus [4]) was “Active”. For the same compound, the Activity (Mus musculus [5]) was “Active” and the Activity (Mus musculus [23]) was “inactive”.
With `COc1ccccc1-c1ccccc1CC(N)=O` the Activity (Mus musculus [2]) was “inactive”.
With `NC(=O)Cc1ccccc1-c1ccc(F)cc1F` the Activity (Mus musculus [1]) was “Active”.
With `NC(=O)c1ccccc1-c1ccccc1F` the Activity (Mus musculus [1]) was “Active”, the Activity (Mus musculus [2]) was “Active” and the Activity (Mus musculus [3]) was “Active”.
In the case of `N#Cc1ccccc1-c1ccccc1CC(N)=O`, the Activity (Mus musculus [4]) is reported as “inactive”.
For `NC(=O)Cc1cnccc1-c1ccccc1F`, the Activity (Mus musculus [1]) was “inactive” and the Activity (Mus musculus [4]) was “inactive”.
With `NC(=O)Cc1cccc(F)c1-c1ccccc1F` the Activity (Mus musculus [1]) was “Active”, the Activity (Mus musculus [2]) was “Active” and the Activity (Mus musculus [23]) was “inactive”.
In the case of `O=C1CCCN1c1ccccc1-c1ccccc1F`, the Activity (Mus musculus [1]) is reported as “Active” and the Activity (Mus musculus [4]) is reported as “inactive”.
In the case of `NC(=O)Cc1ccccc1-c1ccccc1C(F)(F)F`, the Activity (Mus musculus [1]) is reported as “Active”, the Activity (Mus musculus [2]) is reported as “inactive” and the Activity (Mus musculus [5]) is reported as “inactive”.
In the case of `NC(=O)Cc1c(F)cccc1-c1ccccc1F`, the Activity (Mus musculus [1]) is reported as “Active” and the Activity (Mus musculus [2]) is reported as “Active”.
In the case of `NC(=O)Cc1ncccc1-c1ccccc1F`, the Activity (Mus musculus [1]) is reported as “Active”.
With `NC(=O)Cc1cc(F)ccc1-c1ccccc1F` the Activity (Mus musculus [1]) was “Active”, the Activity (Mus musculus [3]) was “inactive” and the Activity (Mus musculus [4]) was “Active”. For the same compound, the Activity (Mus musculus [23]) was “inactive”.
For `O=C(O)Cc1ccccc1-c1ccccc1F`, the Activity (Mus musculus [1]) was “inactive” and the Activity (Mus musculus [4]) was “inactive”.
